Results on one compound are retold here after US10058097B2, “Methods to increase corn productivity” (Valent BioSciences Corporation, priority 2016, dated 2018).

Common to all, as to format: in vivo
In experiment [1] the test system is greenhouse-grown maize. Put plainly: Leaf chlorophyll by SPAD meter, GA3 dose +/- GB. The note with it: without or with GB 10000 mg/liter. As for the experimental part: In the same study, leaf chlorophyll was monitored by measurements with a SPAD meter (Minolta Model 502; Ramsey, N.J.). In this study, the chlorophyll level in the most recently fully-expanded leaf was measured at five different points and the results averaged.

Experiment [2] relates to hybrid corn. Briefly: Corn trial Arcadia, IA 2015, yield. Particulars: field; spray at V7; GA3 120 mg/liter, GB 10000 mg/liter, (S)-ABA 9 mg/liter. The source says: In a corn trial conducted in Arcadia, Iowa, hybrid corn was sown Apr. 30, 2015 and sprayed at V7 with solutions containing a non-ionic surfactant (0.25%, v/v) at 15 gallons of spray volume.
Experiment [3] has as its system corn. Briefly: Field study Woodstock, Ill. 2014, corn growth. The procedure: A field study was conducted at Woodstock, Ill. in 2014. Seeds of a central corn belt hybrid with 111 days to maturity were sown on May 20, 2014. Plants were sprayed at V4 with solutions containing a non-ionic surfactant (0.25%, v/v) at 15 gallons of spray solution/acre. Growth was followed by measuring shoot height in centimeters for 60 plants in each replicate at 7 and 14 days post spraying.

Experiment [4] deals with greenhouse-grown maize. Put plainly: Greenhouse study: effect of GA3 + GB dose on growth, seven days. Particulars: GA3 120 mg/liter, GB 0 mg/liter; spray at V3; n = 7 plants. As for the experimental part:
(§1) In several of the following examples, corn was grown in greenhouse conditions, which are defined as follows. Seeds of a commercial hybrid variety were sown in Pro-Mix® BX (Pro-Mix is a registered trademark of Premier Horticulture Ltd.) with the addition of Osmocote (14-14-14) and gypsum in three-liter pots. Greenhouses were kept at 25±3° C. under a 16:8 hour photoperiod, with illumination at canopy level of ˜250 μmoles m^−2s^−1. Corn was typically fertigated with Peters 21-5-20+micronutrients, calcium ammonium nitrate and magnesium sulfate. Typical growth rates for corn under these conditions ranged from 4-5 cm/day.
(§2) In most greenhouse studies, spray applications were made. These applications were made in a track sprayer outfitted with a 4001E Teejet® nozzle (Teejet is available from and a registered trademark of Spraying Systems Co., Glendale Heights, Ill., USA) and applied at 40 psi. Although application volumes did vary between some studies, generally, 30 gallons/acre of spray solution was applied. Following spray applications, plants were returned to the greenhouse. Typically, experiments were blocked according to plant size, and a randomized complete block design (RCB) was used.
In a greenhouse study, plants were sprayed at V3 stage with solutions containing a non-ionic surfactant (0.25%, v/v) at 30 gallons of spray solution/acre and growth was followed for seven days.

The test system of experiment [5] is corn. Put plainly: Nutrient stress greenhouse study, GA3 and/or GB, 7 days. Particulars: GA3 120 mg/liter, GB 10,000 mg/liter; for Change in Height: n = 7 plants. As for the experimental part:
Synergy was determined using the following formula, in which a synergy factor is calculated by the Abbott method: % Cexp=A+B−(AB/100), here % Cexp is the expected efficacy and “in which A and B are the increase in growth (or resistance to stress) levels given by the single [plant growth regulators]. If the ratio between the experimentally observed efficacy of the mixture Cobs and the expected efficacy of the mixture is greater than 1, synergistic interactions are present in the mixture” (Gisi, Synergistic Interaction of Fungicides in Mixtures, The American Phytopathological Society, 86:11, 1273-1279, 1996).
During rainy periods in March-May in the Midwestern United States, nitrogen fertilizer for corn is often limited due to a combination of leaching and mineralization. GB included with GA3 can help overcome the slow growth caused by low nutrients. In a greenhouse study in Long Grove, Ill. we evaluated the effect of GA3, GB and the combination under ‘normal nutrient’ and limited nutrient conditions.

The test system of experiment [6] is corn. Put plainly: Greenhouse study: Gibberellins, (S)-ABA and Glycine betaine on corn growth. The note with it: GA3 or GA4 120 mg/liter, GB 10000 mg/liter, (S)-ABA 8.8 mg/liter. The procedure:
as §1, §2
When gibberellins are combined with specific ratios of (S)-(+)-abscisic acid (“(S)-ABA”), a surprising enhancement of corn growth after application is often observed. The addition of GB to gibberellin+(S)-ABA spray combinations further increases the growth-promoting activity of the mixtures, as is shown in Table 6.

Where [7] appears, read: field, spray at V4, GA3 120 mg/liter, GB 10,000 mg/liter.

As to `C=C1C[C@]23C[C@@]1(O)CC[C@H]2[C@@]12C=C[C@H](O)[C@@](C)(C(=O)O1)[C@H]2[C@@H]3C(=O)O` [GA3, gibberellic acid], the “Chlorophyll (SPAD reading) 14 days” value in experiment [1] (GA3 30 mg/liter) is on record as 33.1 SPAD reading. In addition, the “Chlorophyll (SPAD reading) 14 days” value in experiment [1] (GA3 60 mg/liter) is given as 32.9 SPAD reading. Also, the “Chlorophyll (SPAD reading) 14 days” value in experiment [1] (GA3 120 mg/liter) was determined as 31.6 SPAD reading. Further, in experiment [1] (GA3 240 mg/liter), the “Chlorophyll (SPAD reading) 14 days” value stood at 31.1 SPAD reading. In experiment [2], this compound gave a Yield of 185.8 bu/acre. Besides, in experiment [3] (setting [7]), the “Growth Rate from 7-14 days” value came to 4.89 cm/day, the “Height at 7 days post spray” value came out at 68.2 centimeters and the “Height at 14 days post spray” value turned out to be 102.4 centimeters. Moreover, the “growth increase over the control plants (surfactant alone)” value in experiment [3] (one week after treatment application) was 6.9%. Moreover, in experiment [4], the “Growth Rate” value amounted to 4.86 cm/day and the “Plant Growth over 7 days” value was found to be 34.01 cm. In experiment [5] (Low Nutrients), the “Dry Weight” value worked out at 2.50 g, the “Leaf Area (L1-L6)” value is listed as 588.66 cm^2 and the “Change in Height” value turned out to be 30.34 cm. For the same compound, in experiment [5] (Normal Nutrients), the “Dry Weight” value is 2.86 g, the “Leaf Area (L1-L6)” value worked out at 629.45 cm^2 and the “Change in Height” value is given as 38.83 cm. In addition, in experiment [6], the “7 days Change in Height” value is on record as 32.5 cm, the “14 days Change in Height” value worked out at 62.8 cm and the “Dry Weight” value was 8.1 g.
